ChEMBL document CHEMBL1153452, “Synthesis and in vitro affinities of various MDL 100907 derivatives as potential 18F-radioligands for 5-HT2A receptor imaging with PET” (Bioorg Med Chem, 2009)

Experiments:
[1] = physchem; conditions: Soerensen buffer
[2] = biological target: Histamine H2 receptor (Homo sapiens, UniProt P25021)
[3] = biological target: T1, Alpha-1B adrenergic receptor (Homo sapiens, UniProt P35368)
T1 sequence (P35368 whole entry): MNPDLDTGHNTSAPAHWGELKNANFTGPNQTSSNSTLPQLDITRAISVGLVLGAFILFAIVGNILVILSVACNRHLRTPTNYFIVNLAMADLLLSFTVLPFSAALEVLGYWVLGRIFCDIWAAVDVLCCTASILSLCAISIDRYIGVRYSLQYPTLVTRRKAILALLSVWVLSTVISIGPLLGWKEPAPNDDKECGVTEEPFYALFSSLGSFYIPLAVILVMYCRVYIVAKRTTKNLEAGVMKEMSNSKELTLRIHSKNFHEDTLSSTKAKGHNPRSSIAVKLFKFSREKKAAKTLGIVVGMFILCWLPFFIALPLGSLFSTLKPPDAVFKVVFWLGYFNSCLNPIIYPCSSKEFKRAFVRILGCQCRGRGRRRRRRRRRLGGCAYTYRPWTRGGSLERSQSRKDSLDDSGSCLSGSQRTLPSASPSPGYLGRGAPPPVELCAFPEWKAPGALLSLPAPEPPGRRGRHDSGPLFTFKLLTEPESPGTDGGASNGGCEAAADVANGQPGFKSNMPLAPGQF

[4] = biological target: Beta-3 adrenergic receptor (Homo sapiens, UniProt P13945)
[5] = biological target: D(1A) dopamine receptor (Homo sapiens, UniProt P21728)
[6] = biological target: Mu-type opioid receptor (Homo sapiens, UniProt P35372)
[7] = biological target: T2, Alpha-2A adrenergic receptor (Homo sapiens, UniProt P08913)
T2 sequence (P08913 whole entry): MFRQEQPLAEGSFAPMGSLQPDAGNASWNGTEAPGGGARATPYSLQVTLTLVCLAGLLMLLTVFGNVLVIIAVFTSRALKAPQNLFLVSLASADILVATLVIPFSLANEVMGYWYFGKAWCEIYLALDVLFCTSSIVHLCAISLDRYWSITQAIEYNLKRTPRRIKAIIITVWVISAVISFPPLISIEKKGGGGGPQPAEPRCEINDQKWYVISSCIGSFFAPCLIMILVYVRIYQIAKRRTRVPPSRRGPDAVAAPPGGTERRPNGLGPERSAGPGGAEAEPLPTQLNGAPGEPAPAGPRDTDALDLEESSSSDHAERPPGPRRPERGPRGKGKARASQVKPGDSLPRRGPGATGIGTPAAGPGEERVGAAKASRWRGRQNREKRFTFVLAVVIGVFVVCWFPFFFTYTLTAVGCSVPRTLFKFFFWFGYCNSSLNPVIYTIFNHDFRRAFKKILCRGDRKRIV

[8] = biological target: 5-hydroxytryptamine receptor 2B (Homo sapiens, UniProt P41595)
[9] = biological target: 5-hydroxytryptamine receptor 5A (Homo sapiens, UniProt P47898)
[10] = biological target: Sodium-dependent dopamine transporter (Homo sapiens, UniProt Q01959)
[11] = biological target: 5-hydroxytryptamine receptor 6 (Homo sapiens, UniProt P50406)
[12] = biological target: D(4) dopamine receptor (Homo sapiens, UniProt P21917)
[13] = biological target: 5-hydroxytryptamine receptor 1D (Homo sapiens, UniProt P28221)
[14] = biological target: T3, D(2) dopamine receptor (Homo sapiens, UniProt P14416)
[15] = biological target: Histamine H3 receptor (Homo sapiens, UniProt Q9Y5N1)
[16] = biological target: Alpha-2C adrenergic receptor (Homo sapiens, UniProt P18825)
[17] = biological target: Sodium-dependent serotonin transporter (Homo sapiens, UniProt P31645)
[18] = biological target: Histamine H1 receptor (Homo sapiens, UniProt P35367)
[19] = biological target: T4, 5-hydroxytryptamine receptor 2A (Rattus norvegicus, UniProt P14842); test: biochemical
[20] = biological target: D(1B) dopamine receptor (Homo sapiens, UniProt P21918)
[21] = biological target: Alpha-1A adrenergic receptor (Homo sapiens, UniProt P35348)
[22] = biological target: T4, 5-hydroxytryptamine receptor 2A; test: Displacement of [3H]altanserine from rat cortical membrane 5HT2A receptor
[23] = biological target: T3, D(2) dopamine receptor; test: Binding affinity to dopamine D2 receptor by competitive binding experiment

T3 sequence (P14416 whole entry): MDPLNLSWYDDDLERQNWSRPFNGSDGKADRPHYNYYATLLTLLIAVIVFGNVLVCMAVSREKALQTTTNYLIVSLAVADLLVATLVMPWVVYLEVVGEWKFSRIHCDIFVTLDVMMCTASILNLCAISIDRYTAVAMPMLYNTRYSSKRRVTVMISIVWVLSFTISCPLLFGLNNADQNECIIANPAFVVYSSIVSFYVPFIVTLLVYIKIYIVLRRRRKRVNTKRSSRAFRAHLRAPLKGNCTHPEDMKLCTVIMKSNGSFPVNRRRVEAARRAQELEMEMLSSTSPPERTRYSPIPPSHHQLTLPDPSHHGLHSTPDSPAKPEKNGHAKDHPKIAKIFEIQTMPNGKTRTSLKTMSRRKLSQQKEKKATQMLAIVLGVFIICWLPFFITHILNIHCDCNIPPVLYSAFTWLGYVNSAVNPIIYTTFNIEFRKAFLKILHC
Sodium-dependent dopamine transporter, sequence (Q01959 whole entry): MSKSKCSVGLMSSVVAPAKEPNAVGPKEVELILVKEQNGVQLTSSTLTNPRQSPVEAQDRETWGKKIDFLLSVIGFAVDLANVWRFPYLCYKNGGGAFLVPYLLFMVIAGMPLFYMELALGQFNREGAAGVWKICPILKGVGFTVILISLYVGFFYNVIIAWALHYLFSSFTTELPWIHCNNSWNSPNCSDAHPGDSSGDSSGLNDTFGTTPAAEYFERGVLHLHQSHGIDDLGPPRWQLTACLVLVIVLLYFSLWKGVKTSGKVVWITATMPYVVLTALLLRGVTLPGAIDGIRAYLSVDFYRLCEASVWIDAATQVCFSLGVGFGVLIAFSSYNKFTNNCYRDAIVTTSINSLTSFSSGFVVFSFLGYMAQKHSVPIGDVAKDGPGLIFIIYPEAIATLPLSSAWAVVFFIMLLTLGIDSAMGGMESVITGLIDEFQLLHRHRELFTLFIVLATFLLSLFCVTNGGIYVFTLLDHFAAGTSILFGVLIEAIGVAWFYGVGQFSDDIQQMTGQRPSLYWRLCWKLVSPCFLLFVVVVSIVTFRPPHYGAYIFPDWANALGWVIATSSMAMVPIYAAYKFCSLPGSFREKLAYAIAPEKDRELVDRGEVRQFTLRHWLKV
Beta-3 adrenergic receptor, sequence (P13945 whole entry): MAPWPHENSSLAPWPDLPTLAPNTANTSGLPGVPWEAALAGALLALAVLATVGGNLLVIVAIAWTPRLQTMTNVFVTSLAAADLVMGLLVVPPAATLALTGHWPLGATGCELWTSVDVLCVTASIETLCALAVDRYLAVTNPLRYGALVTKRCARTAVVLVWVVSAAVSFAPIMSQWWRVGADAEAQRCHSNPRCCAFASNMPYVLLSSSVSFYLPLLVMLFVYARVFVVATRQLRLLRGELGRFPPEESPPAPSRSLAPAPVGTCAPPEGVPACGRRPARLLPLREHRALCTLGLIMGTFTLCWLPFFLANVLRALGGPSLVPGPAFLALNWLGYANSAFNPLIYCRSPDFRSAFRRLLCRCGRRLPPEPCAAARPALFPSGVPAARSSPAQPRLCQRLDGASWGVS
5-hydroxytryptamine receptor 2B, sequence (P41595 whole entry): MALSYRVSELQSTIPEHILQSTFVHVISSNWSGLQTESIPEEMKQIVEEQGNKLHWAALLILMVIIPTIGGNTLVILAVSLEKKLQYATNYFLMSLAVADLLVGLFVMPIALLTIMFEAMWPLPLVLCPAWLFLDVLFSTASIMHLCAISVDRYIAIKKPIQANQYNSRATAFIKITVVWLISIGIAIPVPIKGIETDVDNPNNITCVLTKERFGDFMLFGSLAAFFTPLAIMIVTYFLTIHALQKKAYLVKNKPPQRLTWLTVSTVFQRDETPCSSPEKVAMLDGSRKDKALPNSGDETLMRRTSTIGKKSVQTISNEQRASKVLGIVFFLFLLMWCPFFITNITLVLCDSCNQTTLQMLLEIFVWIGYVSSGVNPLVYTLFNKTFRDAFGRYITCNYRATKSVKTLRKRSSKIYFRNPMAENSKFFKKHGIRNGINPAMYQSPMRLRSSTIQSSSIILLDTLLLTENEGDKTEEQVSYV
Histamine H2 receptor, sequence (P25021 whole entry): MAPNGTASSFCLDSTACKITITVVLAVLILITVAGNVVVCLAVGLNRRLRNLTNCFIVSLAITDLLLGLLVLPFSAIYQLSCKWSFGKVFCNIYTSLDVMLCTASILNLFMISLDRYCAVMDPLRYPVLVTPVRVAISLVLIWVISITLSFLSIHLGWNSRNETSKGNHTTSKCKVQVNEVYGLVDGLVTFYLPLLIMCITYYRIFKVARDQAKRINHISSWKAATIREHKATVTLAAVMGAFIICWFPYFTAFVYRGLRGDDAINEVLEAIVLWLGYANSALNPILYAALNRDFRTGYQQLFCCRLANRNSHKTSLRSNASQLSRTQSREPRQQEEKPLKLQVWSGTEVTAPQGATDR
Sodium-dependent serotonin transporter, sequence (P31645 whole entry): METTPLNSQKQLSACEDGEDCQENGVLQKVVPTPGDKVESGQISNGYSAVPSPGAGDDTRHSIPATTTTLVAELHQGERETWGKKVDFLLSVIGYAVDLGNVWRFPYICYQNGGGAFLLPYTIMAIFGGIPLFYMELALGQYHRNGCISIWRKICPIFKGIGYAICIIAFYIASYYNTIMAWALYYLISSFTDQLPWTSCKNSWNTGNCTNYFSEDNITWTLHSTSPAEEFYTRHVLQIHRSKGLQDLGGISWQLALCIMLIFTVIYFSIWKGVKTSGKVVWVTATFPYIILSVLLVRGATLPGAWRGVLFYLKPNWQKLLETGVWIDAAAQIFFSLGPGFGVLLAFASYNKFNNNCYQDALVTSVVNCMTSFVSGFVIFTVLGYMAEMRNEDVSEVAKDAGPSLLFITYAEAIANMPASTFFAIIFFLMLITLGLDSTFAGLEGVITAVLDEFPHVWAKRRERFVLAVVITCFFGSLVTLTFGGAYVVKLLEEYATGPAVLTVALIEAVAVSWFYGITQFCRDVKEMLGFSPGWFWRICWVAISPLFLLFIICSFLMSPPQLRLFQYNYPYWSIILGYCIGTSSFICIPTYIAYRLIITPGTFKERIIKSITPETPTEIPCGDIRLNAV
Mu-type opioid receptor, sequence (P35372 whole entry): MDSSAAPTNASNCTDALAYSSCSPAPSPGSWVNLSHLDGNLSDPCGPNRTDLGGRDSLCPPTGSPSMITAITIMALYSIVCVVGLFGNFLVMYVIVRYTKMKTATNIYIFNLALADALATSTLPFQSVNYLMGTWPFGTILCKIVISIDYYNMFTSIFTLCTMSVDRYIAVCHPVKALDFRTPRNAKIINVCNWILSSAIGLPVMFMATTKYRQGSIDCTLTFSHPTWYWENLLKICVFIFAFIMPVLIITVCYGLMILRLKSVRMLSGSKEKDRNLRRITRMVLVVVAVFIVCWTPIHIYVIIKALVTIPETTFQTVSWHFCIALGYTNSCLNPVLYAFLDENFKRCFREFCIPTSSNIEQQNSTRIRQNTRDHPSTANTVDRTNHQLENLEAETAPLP
T4 sequence (P14842 whole entry): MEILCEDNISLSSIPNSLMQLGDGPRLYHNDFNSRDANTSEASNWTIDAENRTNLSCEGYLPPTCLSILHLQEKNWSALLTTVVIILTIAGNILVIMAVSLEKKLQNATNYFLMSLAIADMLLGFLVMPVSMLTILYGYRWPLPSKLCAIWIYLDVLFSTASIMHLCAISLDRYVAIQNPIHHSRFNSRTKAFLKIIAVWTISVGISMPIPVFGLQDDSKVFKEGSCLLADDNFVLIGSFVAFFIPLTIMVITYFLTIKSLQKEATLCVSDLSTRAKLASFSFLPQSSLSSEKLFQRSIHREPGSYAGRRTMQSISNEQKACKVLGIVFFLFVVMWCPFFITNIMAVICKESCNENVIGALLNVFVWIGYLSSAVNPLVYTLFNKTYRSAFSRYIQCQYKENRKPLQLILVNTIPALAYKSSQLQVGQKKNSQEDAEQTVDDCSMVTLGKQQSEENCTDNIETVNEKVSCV
Histamine H1 receptor, sequence (P35367 whole entry): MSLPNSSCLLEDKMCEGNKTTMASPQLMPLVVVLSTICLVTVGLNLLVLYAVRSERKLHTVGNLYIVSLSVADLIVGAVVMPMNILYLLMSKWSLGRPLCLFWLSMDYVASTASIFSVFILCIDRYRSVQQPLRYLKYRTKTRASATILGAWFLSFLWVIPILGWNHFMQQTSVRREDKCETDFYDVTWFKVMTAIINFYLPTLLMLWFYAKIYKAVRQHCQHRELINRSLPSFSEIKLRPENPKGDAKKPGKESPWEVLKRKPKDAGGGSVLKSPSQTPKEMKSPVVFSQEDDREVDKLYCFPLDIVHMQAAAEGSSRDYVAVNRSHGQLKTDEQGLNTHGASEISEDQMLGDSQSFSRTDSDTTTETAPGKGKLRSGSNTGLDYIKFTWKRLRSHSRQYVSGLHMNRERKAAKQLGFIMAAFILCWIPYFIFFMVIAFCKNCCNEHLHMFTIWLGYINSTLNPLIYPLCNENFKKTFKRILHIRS
Histamine H3 receptor, sequence (Q9Y5N1 whole entry): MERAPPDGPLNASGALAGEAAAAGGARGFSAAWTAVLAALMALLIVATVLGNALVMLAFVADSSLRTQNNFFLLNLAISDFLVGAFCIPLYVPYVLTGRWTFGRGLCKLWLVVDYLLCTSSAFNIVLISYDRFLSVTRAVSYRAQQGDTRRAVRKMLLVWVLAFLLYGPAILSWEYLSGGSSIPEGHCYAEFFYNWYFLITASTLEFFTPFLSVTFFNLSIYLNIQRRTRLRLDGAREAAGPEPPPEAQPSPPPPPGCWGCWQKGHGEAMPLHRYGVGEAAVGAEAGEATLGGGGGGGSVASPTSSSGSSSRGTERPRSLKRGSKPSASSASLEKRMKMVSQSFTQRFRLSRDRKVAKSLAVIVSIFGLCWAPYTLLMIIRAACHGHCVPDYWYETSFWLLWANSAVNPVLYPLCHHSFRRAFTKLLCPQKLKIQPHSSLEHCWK

SMILES	logP [1]	Ki [8] [nM]	Ki [9] [nM]	Ki [11] [nM]	Ki [13] [nM]	Ki [19] [nM]	other results
COc1c(OCCF)cccc1C(O)C1CCN(CCc2ccc(F)cc2)CC1 (configuration not stated)	2.8	299	> 10000	3890	706	–	Ki [2]: 3180 nM; Ki [3]: 325 nM; Ki [4]: > 10000 nM; Ki [5]: 899 nM; Ki [6]: > 10000 nM; Ki [7]: > 10000 nM; Ki [10]: > 10000 nM; Ki [12]: 544 nM; Ki [14]: > 10000 nM; Ki [15]: > 10000 nM; Ki [16]: 148 nM; Ki [17]: 3520 nM; Ki [18]: 374 nM
COc1c(O)cccc1C(O)C1CCN(CCc2ccc([N+](=O)[O-])cc2)CC1 (configuration not stated)	1.9	–	–	–	–	–	–
COc1c(OCCF)cccc1C(O)C1CCN(CCc2ccc([N+](=O)[O-])cc2)CC1 (configuration not stated)	2.37	1840	> 10000	> 10000	3420	26	–
COc1ccc(CCN2CCC(C(=O)c3cccc(OCCF)c3OC)CC2)cc1	3.02	1970	> 10000	> 10000	1440	153	–
COc1cccc(C(O)C2CCN(Cc3ccc(F)cc3)CC2)c1OC (configuration not stated)	–	–	–	–	–	> 1000	–
COc1ccc(CCN2CCC(C(O)c3cccc(OCCF)c3OC)CC2)cc1 (configuration not stated)	2.72	2750	> 10000	> 10000	> 10000	59	–
COc1c(OCCF)cccc1C(=O)C1CCN(CCc2ccc([N+](=O)[O-])cc2)CC1	2.71	1050	> 10000	> 10000	1830	118	–
COc1c(OCCF)cccc1C(O)C1CCN(C(=O)Cc2ccccc2)CC1 (configuration not stated)	1.57	–	–	–	–	1990	–
COc1ccc(CCN2CCC(C(O)c3cccc(OC)c3OC)CC2)cc1 (configuration not stated)	–	–	–	–	–	55	–
COc1c(OCCF)cccc1C(=O)C1CCN(CCc2ccc(F)cc2)CC1	3.08	960	1580	> 10000	713	3.23	Ki [2]: 1760 nM; Ki [3]: 550 nM; Ki [4]: > 10000 nM; Ki [5]: 1410 nM; Ki [6]: > 10000 nM; Ki [7]: 863 nM; Ki [20]: 7400 nM; Ki [21]: 146 nM; Ki [10]: > 10000 nM; Ki [12]: 174 nM; Ki [14]: 3830 nM; Ki [15]: > 10000 nM; Ki [16]: 333 nM; Ki [17]: 3090 nM; Ki [18]: 944 nM
COc1cccc(C(O)C2CCN(CCc3ccc([N+](=O)[O-])cc3)CC2)c1OC (configuration not stated)	–	–	–	–	–	90	–
COc1cccc([C@H](O)C2CCN(CCc3ccc(F)cc3)CC2)c1OC [VOLINANSERIN]	2.98	–	–	–	–	–	–

More lines, in order of falling Ki [19], values ahead:

logP [1]	Ki [8] [nM]	Ki [9] [nM]	Ki [11] [nM]	Ki [13] [nM]	Ki [19] [nM]	SMILES	other results
–	–	–	–	–	2.06	COc1c(OCCF)cccc1C(O)C1CCN(CCc2ccc(N)cc2)CC1 (configuration not stated)	–
2.92	–	–	–	–	1.63	COc1c(OCCF)cccc1C(O)C1CCN(CCc2ccccc2)CC1 (configuration not stated)	–
–	–	–	–	–	1.34	COc1c(O)cccc1C(=O)C1CCN(CCc2ccc(F)cc2)CC1	–
2.27	–	–	–	–	1.24	COc1c(O)cccc1C(O)C1CCN(CCc2ccc(F)cc2)CC1 (configuration not stated)	–
2.8	320	6810	3840	1060	0.72	COc1c(OCCF)cccc1[C@H](O)C1CCN(CCc2ccc(F)cc2)CC1	Ki [2]: 2430 nM; Ki [3]: 500 nM; Ki [4]: > 10000 nM; Ki [5]: 3830 nM; Ki [6]: > 10000 nM; Ki [7]: > 10000 nM; Ki [20]: 7420 nM; Ki [21]: 335 nM; Ki [10]: > 10000 nM; Ki [12]: 442 nM; Ki [14]: 2690 nM; Ki [15]: > 10000 nM; Ki [17]: 2210 nM; Ki [18]: 509 nM
2.15	–	–	–	–	0.72	O=C(c1ccc(F)cc1)C1CCN(CCn2c(=S)[nH]c3ccccc3c2=O)CC1 [ALTANSERIN]	Ki [22]: 0.13 nM; Ki [23]: 62 nM
–	–	–	–	–	0.31	COc1cccc(C(O)C2CCN(CCc3ccc(C)cc3)CC2)c1OC (configuration not stated)	–
–	–	–	–	–	0.25	COc1c(O)cccc1[C@H](O)C1CCN(CCc2ccc(F)cc2)CC1	–
